Like-named read-outs stand apart in the source and are kept apart here.
Test system: soybean plants (variety S20-G7)
Assay: Reduced plant water use in soybean (foliar spray, repeated weighing of pots)
Format: in vivo
Settings: vs negative control; for % WU 0 DAA AM*: 0 DAA a.m.; for % WU 0DAA PM: 0 DAA p.m.; for % WU 1DAA AM: 1 DAA a.m.; for % WU 1DAA PM: 1 DAA p.m.; for % WU 2 DAA AM: 2 DAA a.m.; for % WU 2 DAA PM: 2 DAA p.m.; for change in vivo at 500 µM: Glycine max, foliar, Table B1, sprayed at 500 μM
Procedure: Compounds were tested for their effect on reducing plant water use as follows. Each compound was dissolved in a blank emulsifiable concentrate (EC) formulation that was then diluted to the desired concentration with water containing additional surfactant (EXTRAVON 1 g/20 L). The compounds were applied by foliar spray to 12 day old soybean plants (variety S20-G7) grown in controlled environment plant growth chambers. Plant water use during the day was assessed by repeated weighing of the pots in which the plants were grown before and after application of the compounds at the indicated times (expressed in days after application (DAA)). The water use data before application was used to correct any differences in water use arising due to non-treatment effects (e.g. due to differences in plant size). The untransformed water use values were subjected to an analysis of covariance, fitting the effect of treatment and using the baseline water use 1 day before application as a covariate.
The results are expressed compared to negative control treatment (diluted EC formulation without active ingredient but with EXTRAVON 1 g/20 L).
Application of the chemicals (0 DAA) takes place approximately between 08:00 and 09:30 a.m. WU is measured within day time (chamber light is on 06:00 to 20:00) at these timepoints: 0 DAA a.m. (10:30-12:50), 0 DAA p.m. (14:00-19:50), 1 DAA a.m. (7:30-12:50), 1 DAA p.m. (14:00-19:50), 2 DAA a.m. (07:30-12:50) and 2 DAA p.m. (14:00-19:50). The cumulative total WU (0-2.5 DAA) is calculated by summing the WU data mentioned above.

[1] = 0 h, 0 DAA a.m. (10:30-12:50), read-out: % WU 0 DAA AM
[2] = 24 h, 1 DAA a.m. (7:30-12:50), read-out: % WU 1DAA AM
[3] = 24 h, 1 DAA p.m. (14:00-19:50), read-out: % WU 1DAA PM
[4] = 48 h, 2 DAA a.m. (07:30-12:50), read-out: % WU 2 DAA AM
[5] = 48 h, 2 DAA p.m. (14:00-19:50), read-out: % WU 2 DAA PM
[6] = 60 h, cumulative total WU (0-2.5 DAA), read-out: % WU Total 0 to 2.5 DAA

CCCN1C(=O)CCc2cc(NS(=O)(=O)Cc3ccc(C)cc3)ccc21 [Quinabactin, quinabactin, reference compound]
% WU 0 DAA AM* (Table B2, rate 31.25 uM): −0.3%
% WU 0DAA PM (Table B2, rate 31.25 uM): −0.3%
% WU 1DAA AM (Table B2, rate 31.25 uM): 0.2%
% WU 1DAA PM (Table B2, rate 31.25 uM): −0.1%
% WU 2 DAA AM (Table B2, rate 31.25 uM): −0.9%
% WU 2 DAA PM (Table B2, rate 31.25 uM): −1.3%
% WU Total 0 to 2.5 DAA (Table B2, rate 31.25 uM, cumulative total WU (0-2.5 DAA)): −0.7%
% WU 0 DAA AM* (Table B2, rate 125 uM): −15.3%
% WU 0DAA PM (Table B2, rate 125 uM): −5.7%
% WU 1DAA AM (Table B2, rate 125 uM): 1.8%
% WU 1DAA PM (Table B2, rate 125 uM): 2.9%
% WU 2 DAA AM (Table B2, rate 125 uM): 2.4%
% WU 2 DAA PM (Table B2, rate 125 uM): 1.1%
% WU Total 0 to 2.5 DAA (Table B2, rate 125 uM, cumulative total WU (0-2.5 DAA)): −0.5%
% WU 0 DAA AM* (Table B2, rate 500 uM): −42.0%
% WU 0DAA PM (Table B2, rate 500 uM): −41.2%
% WU 1DAA AM (Table B2, rate 500 uM): −18.6%
% WU 1DAA PM (Table B2, rate 500 uM): −10.8%
% WU 2 DAA AM (Table B2, rate 500 uM): −3.8%
% WU 2 DAA PM (Table B2, rate 500 uM): −2.9%
% WU Total 0 to 2.5 DAA (Table B2, rate 500 uM, cumulative total WU (0-2.5 DAA)): −16.9%

CC1CC(=O)N(CC2CC2)c2ccc(CNS(=O)(=O)c3ccccc3)cc21 (stereo not drawn) [Compound 24.001, N-[[1-(cyclopropylmethyl)-4-methyl-2-oxo-3,4-dihydroquinolin-6-yl]methyl]benzenesulfonamide]
change in vivo at 500 µM [1]: -35.3%
change in vivo at 500 µM [2]: -42.8%
change in vivo at 500 µM [3]: -42.8%
change in vivo at 500 µM [4]: -39.9%
change in vivo at 500 µM [5]: -38.3%
change in vivo at 500 µM [6]: -40.6%

CCCn1c(=O)ccc2cc(CNS(=O)(=O)c3ccc(F)cc3)ccc21 [Compound 7.009, 4-fluoro-N-[(2-oxo-1-propyl-6-quinolyl)methyl]benzenesulfonamide]
change in vivo at 500 µM [1]: -8.1%
change in vivo at 500 µM [2]: -3.6%
change in vivo at 500 µM [3]: -3.5%
change in vivo at 500 µM [4]: -4%
change in vivo at 500 µM [5]: -1.7%
change in vivo at 500 µM [6]: -4.1%

CCCn1c(=O)ccc2cc(CNS(=O)(=O)c3ccc(F)cc3F)ccc21 [Compound 7.006, 2,4-difluoro-N-[(2-oxo-1-propyl-6-quinolyl)methyl]benzenesulfonamide]
change in vivo at 500 µM [1]: -14.6%
change in vivo at 500 µM [2]: -6.7%
change in vivo at 500 µM [3]: -4.2%
change in vivo at 500 µM [4]: -4.2%
change in vivo at 500 µM [5]: 0%
change in vivo at 500 µM [6]: -6.1%

O=C1CCc2cc(CNS(=O)(=O)c3ccc(F)cc3F)ccc2N1CC(F)(F)F [Compound 11.006, 2,4-difluoro-N-[[2-oxo-1-(2,2,2-trifluoroethyl)-3,4-dihydroquinolin-6-yl]methyl]benzenesulfonamide]
change in vivo at 500 µM [1]: -13%
change in vivo at 500 µM [2]: -15.3%
change in vivo at 500 µM [3]: -15.7%
change in vivo at 500 µM [4]: -16.4%
change in vivo at 500 µM [5]: -16.5%
change in vivo at 500 µM [6]: -15.8%

CCN1C(=O)CC(C)c2cc(CNS(=O)(=O)c3ccccc3)cc(C)c21 (stereo not drawn) [Compound 16.001, N-[(1-ethyl-4,8-dimethyl-2-oxo-3,4-dihydroquinolin-6-yl)methyl]benzenesulfonamide]
change in vivo at 500 µM [1]: -39%
change in vivo at 500 µM [2]: -49%
change in vivo at 500 µM [3]: -48.1%
change in vivo at 500 µM [4]: -45.7%
change in vivo at 500 µM [5]: -44.5%
change in vivo at 500 µM [6]: -46%

COCCN1C(=O)CCc2cc(CNS(=O)(=O)c3ccc(F)cc3F)ccc21 [Compound 13.006, 2,4-difluoro-N-[[1-(2-methoxyethyl)-2-oxo-3,4-dihydroquinolin-6-yl]methyl]benzenesulfonamide]
change in vivo at 500 µM [1]: -9.8%
change in vivo at 500 µM [2]: -9.3%
change in vivo at 500 µM [3]: -10.1%
change in vivo at 500 µM [4]: -9.6%
change in vivo at 500 µM [5]: -10.3%
change in vivo at 500 µM [6]: -10.1%

C=CCN1C(=O)CCc2cc(CNS(=O)(=O)c3ccccc3)ccc21 [Compound 5.001, N-[(1-allyl-2-oxo-3,4-dihydroquinolin-6-yl)methyl]benzenesulfonamide]
change in vivo at 500 µM [1]: -15.1%
change in vivo at 500 µM [2]: -18.7%
change in vivo at 500 µM [3]: -17.4%
change in vivo at 500 µM [4]: -16.5%
change in vivo at 500 µM [5]: -15.6%
change in vivo at 500 µM [6]: -17.1%

CCCN1C(=O)CCc2cc(CNS(=O)(=O)c3ccccc3)cc(F)c21 [Compound 17.001, N-[(8-fluoro-2-oxo-1-propyl-3,4-dihydroquinolin-6-yl)methyl]benzenesulfonamide]
change in vivo at 500 µM [1]: -41.6%
change in vivo at 500 µM [2]: -38%
change in vivo at 500 µM [3]: -36.3%
change in vivo at 500 µM [4]: -27.1%
change in vivo at 500 µM [5]: -26.3%
change in vivo at 500 µM [6]: -34.7%

CCN1C(=O)CC(C)c2cc(CNS(=O)(=O)c3ccccc3)cc(F)c21 (stereo not drawn) [Compound 22.001, N-[(1-ethyl-8-fluoro-4-methyl-2-oxo-3,4-dihydroquinolin-6-yl)methyl]benzenesulfonamide]
change in vivo at 500 µM [1]: -46.1%
change in vivo at 500 µM [2]: -55.8%
change in vivo at 500 µM [3]: -53%
change in vivo at 500 µM [4]: -55.1%
change in vivo at 500 µM [5]: -50.1%
change in vivo at 500 µM [6]: -52.1%

O=C1CCc2cc(CNS(=O)(=O)c3ccccc3)ccc2N1CC(F)(F)F [Compound 11.001, N-[[2-oxo-1-(2,2,2-trifluoroethyl)-3,4-dihydroquinolin-6-yl]methyl]benzenesulfonamide]
change in vivo at 500 µM [1]: -20.8%
change in vivo at 500 µM [2]: -26.2%
change in vivo at 500 µM [3]: -27.6%
change in vivo at 500 µM [4]: -26.9%
change in vivo at 500 µM [5]: -26.9%
change in vivo at 500 µM [6]: -26.1%

COCCN1C(=O)CCc2cc(CNS(=O)(=O)c3ccccc3)ccc21 [Compound 13.001, N-[[1-(2-methoxyethyl)-2-oxo-3,4-dihydroquinolin-6-yl]methyl]benzenesulfonamide]
change in vivo at 500 µM [1]: -15.1%
change in vivo at 500 µM [2]: -11%
change in vivo at 500 µM [3]: -11%
change in vivo at 500 µM [4]: -8.9%
change in vivo at 500 µM [5]: -9.2%
change in vivo at 500 µM [6]: -11.1%

C=CCN1C(=O)CC(C)c2cc(CNS(=O)(=O)c3ccccc3)ccc21 (stereo not drawn) [Compound 25.001, N-[(1-allyl-4-methyl-2-oxo-3,4-dihydroquinolin-6-yl)methyl]benzenesulfonamide]
change in vivo at 500 µM [1]: -28.2%
change in vivo at 500 µM [2]: -41%
change in vivo at 500 µM [3]: -39.6%
change in vivo at 500 µM [4]: -38.1%
change in vivo at 500 µM [5]: -36.7%
change in vivo at 500 µM [6]: -37.9%

CC1CC(=O)N(CC(F)(F)F)c2ccc(CNS(=O)(=O)c3ccccc3)cc21 (stereo not drawn) [Compound 23.001, N-[[4-methyl-2-oxo-1-(2,2,2-trifluoroethyl)-3,4-dihydroquinolin-6-yl]methyl]benzenesulfonamide]
change in vivo at 500 µM [1]: -31.3%
change in vivo at 500 µM [2]: -39.7%
change in vivo at 500 µM [3]: -40.8%
change in vivo at 500 µM [4]: -35.9%
change in vivo at 500 µM [5]: -37.3%
change in vivo at 500 µM [6]: -37.7%

O=C1CCc2cc(CNS(=O)(=O)c3ccc(F)cc3F)ccc2N1CC1CC1 [Compound 10.006, N-[[1-(cyclopropylmethyl)-2-oxo-3,4-dihydroquinolin-6-yl]methyl]-2,4-difluoro-benzenesulfonamide]
change in vivo at 500 µM [1]: -22.4%
change in vivo at 500 µM [2]: -18.5%
change in vivo at 500 µM [3]: -18.2%
change in vivo at 500 µM [4]: -16.9%
change in vivo at 500 µM [5]: -17.8%
change in vivo at 500 µM [6]: -18.6%

C=CCN1C(=O)CCc2cc(CNS(=O)(=O)c3ccc(F)cc3F)ccc21 [Compound 5.006, N-[(1-allyl-2-oxo-3,4-dihydroquinolin-6-yl)methyl]-2,4-difluoro-benzenesulfonamide]
change in vivo at 500 µM [1]: -13.6%
change in vivo at 500 µM [2]: -12.5%
change in vivo at 500 µM [3]: -11.5%
change in vivo at 500 µM [4]: -9.7%
change in vivo at 500 µM [5]: -9.9%
change in vivo at 500 µM [6]: -11.4%

Reference: patent US10392348B2, “2-oxo-3,4-dihydroquinoline compounds as plant growth regulators” (Syngenta Participations AG, priority 2015, dated 2019)
